Experimental data reported in patent publication US7659404B2, “Broad spectrum 2-(substituted-amino)-benzothiazole sulfonamide HIV protease inhibitors” (Tibotec Pharmaceuticals Ltd., priority 2001, dated 2010).
Like-named read-outs stand apart in the source and are kept apart here.

How the values were obtained:
virus strain F (R13025) = test: microbe, parasite or virus in culture; format: cell-based, HIV; conditions: for HIV-AVE-MT4-MTT-R13025-2-002 pEC50: virus strain F (R13025), MT4 cells; for EC50: Human immunodeficiency virus 1, MT4, read-out: HIV-AVE-MT4-MTT-R13025-2-002 pEC50, virus strain F (R13025), MT4 cells, MTT (converted)
Experimental: (§1) HIV- or mock-infected MT4 cells were incubated for five days in the presence of various concentrations of the inhibitor. […] Cell viability is measured by measuring the concentration of MTT, a yellow, water soluble tetrazolium dye that is converted to a purple, water insoluble formazan in the mitochondria of living cells only. Upon solubilization of the resulting formazan crystals with isopropanol, the absorbance of the solution is monitored at 540 nm. The values correlate directly to the number of living cells remaining in the culture at the completion of the five day incubation. The inhibitory activity of the compound was monitored on the virus-infected cells and was expressed as EC50 and EC90. These values represent the amount of the compound required to protect 50% and 90%, respectively, of the cells from the cytopathogenic effect of the virus. The toxicity of the compound was measured on the mock-infected cells and was expressed as CC50, which represents the concentration of compound required to inhibit the growth of the cells by 50%. The selectivity index (SI) (ratio CC50/EC50) is an indication of the selectivity of the anti-HIV activity of the inhibitor.
(§2) Because of the increasing emergence of drug resistant HIV strains, the present compounds were tested for their potency against clinically isolated HIV strains harboring several mutations.
(§3) As a measure of the broad spectrum activity of the present compounds, the fold resistance (FR) defined as FR=EC50(mutant strain)/EC50(HIV-1 strain LAI).

virus strain S (R13080) = test: microbe, parasite or virus in culture; format: cell-based, HIV; conditions: for HIV-AVE-MT4-MTT-R13080-2-002 pEC50: virus strain S (R13080), MT4 cells; for EC50: Human immunodeficiency virus 1, MT4, read-out: HIV-AVE-MT4-MTT-R13080-2-002 pEC50, virus strain S (R13080), MT4 cells, MTT (converted)
Experimental: as §1, §2, §3

wild type virus (IIIB) = test: HIV-AVE-MT4-MTT cellular assay, wild type virus (IIIB); format: cell-based; conditions: for HIV-AVE-MT4-MTT-IIIB-2-002 pEC50: wild type virus (IIIB); for EC50: Human immunodeficiency virus 1, IIIB
Experimental: HIV- or mock-infected MT4 cells were incubated for five days in the presence of various concentrations of the inhibitor. At the end of the incubation period, all HIV-infected cells have been killed by the replicating virus in the control cultures in the absence of any inhibitor. Cell viability is measured by measuring the concentration of MTT, a yellow, water soluble tetrazolium dye that is converted to a purple, water insoluble formazan in the mitochondria of living cells only. Upon solubilization of the resulting formazan crystals with isopropanol, the absorbance of the solution is monitored at 540 nm. The values correlate directly to the number of living cells remaining in the culture at the completion of the five day incubation. The inhibitory activity of the compound was monitored on the virus-infected cells and was expressed as EC50 and EC90. These values represent the amount of the compound required to protect 50% and 90%, respectively, of the cells from the cytopathogenic effect of the virus. The toxicity of the compound was measured on the mock-infected cells and was expressed as CC50, which represents the concentration of compound required to inhibit the growth of the cells by 50%. The selectivity index (SI) (ratio CC50/EC50) is an indication of the selectivity of the anti-HIV activity of the inhibitor.

[1] = MT4, wild type virus (IIIB), MT4 cells, MTT, read-out: HIV-AVE-MT4-MTT-IIIB-2-002 pEC50 (converted)

SMILES	HIV-AVE-MT4-MTT-R13025-2-002 pEC50 (virus strain F (R13025))	HIV-AVE-MT4-MTT-R13080-2-002 pEC50 (virus strain S (R13080))	HIV-AVE-MT4-MTT-IIIB-2-002 pEC50 (wild type virus (IIIB); MT4 cells, MTT)	EC50 (virus strain F (R13025)) [nM]	EC50 (virus strain S (R13080)) [nM]	EC50 (wild type virus (IIIB); [1]) [nM]	EC50 (wild type virus (IIIB); MT4, read-out: HIV-AVE-MT4-MTT-IIIB-2-002 pEC50 (converted)) [nM]
CC(C)CN(C[C@@H](O)[C@H](Cc1ccccc1)NC(=O)OCc1cncs1)S(=O)(=O)c1ccc2nc(N(C)C(=O)CN(C)CCCN3CCCC3)sc2c1 [Compound 175]	6.03	5.5	7.3				
CC(C)CN(C[C@@H](O)[C@H](Cc1ccccc1)NC(=O)O[C@H]1CO[C@H]2OCC[C@H]21)S(=O)(=O)c1ccc2nc(N(C)CCCN3CCCC3)sc2c1 [Compound 108]				288	813	24.5	
COc1cc(C(=O)Nc2nc3ccc(S(=O)(=O)N(CC(C)C)C[C@@H](O)[C@H](Cc4ccccc4)NC(=O)COc4c(C)cccc4C)cc3s2)cc(OC)c1O [Compound 116]				32.4	43.7	31.6	
Cc1cccc(C)c1OCC(=O)N[C@@H](Cc1ccccc1)[C@H](O)CN(CC(C)C)S(=O)(=O)c1ccc2nc(NC(=O)c3ccccn3)sc2c1 [Compound 112]	6.91		8		151		
Cc1cccc(C)c1OCC(=O)N[C@@H](Cc1ccccc1)[C@H](O)CN(CC(C)C)S(=O)(=O)c1ccc2nc(NCc3ccncc3)sc2c1 [Compound 131]				832	1050	46.8	
CCOC(=O)Nc1nc2ccc(S(=O)(=O)N(CC(C)C)C[C@@H](O)[C@H](Cc3ccccc3)NC(=O)OCc3cncs3)cc2s1 [Compound 170]				17.4	162	7.59	
CC(C)COC(=O)Nc1nc2ccc(S(=O)(=O)N(CC(C)C)C[C@@H](O)[C@H](Cc3ccccc3)NC(=O)OCc3cncs3)cc2s1 [Compound 171]				186	851	51.3	
CC(C)CN(C[C@@H](O)[C@H](Cc1ccccc1)NC(=O)O[C@H]1CO[C@H]2OCC[C@H]21)S(=O)(=O)c1ccc2nc(N3CCN(C)CC3)sc2c1 [Compound 107]				158	661	2	
CC(C)CN(C[C@@H](O)[C@H](Cc1ccccc1)NC(=O)OCc1cncs1)S(=O)(=O)c1ccc2nc(C(C)C(=O)CCCC(=O)O)sc2c1 (stereo partly drawn) [Compound 160]				479	2450	51.3	
CC(=O)Nc1nc2ccc(S(=O)(=O)N(CC(C)C)C[C@@H](O)[C@H](Cc3ccccc3)NC(=O)COc3c(C)cc(C)cc3C)cc2s1 [Compound 105]				56.2	479	46.8	
CCN1CCCC1CNc1nc2ccc(S(=O)(=O)N(CC(C)C)C[C@@H](O)[C@H](Cc3ccccc3)NC(=O)O[C@H]3CO[C@H]4OCC[C@H]43)cc2s1 (stereo partly drawn) [Compound 186]				6.61	28.8	6.17	
CC(=O)NCCNc1nc2ccc(S(=O)(=O)N(CC(C)C)C[C@@H](O)[C@H](Cc3ccccc3)NC(=O)OC(C)(C)C)cc2s1 [Compound 121]				2820	10000	20.9	
CC(C)CN(C[C@@H](O)[C@H](Cc1ccccc1)NC(=O)OCc1cncs1)S(=O)(=O)c1ccc2nc(NC(=O)CN3CCN(C)CC3)sc2c1 [Compound 159]	7.78	7.46	8.1				
Cc1cccc(C)c1OCC(=O)Nc1nc2ccc(S(=O)(=O)N(CC(C)C)C[C@@H](O)[C@H](Cc3ccccc3)NC(=O)COc3c(C)cccc3C)cc2s1 [Compound 145]				39.8	145	12.6	
CC(C)CN(C[C@@H](O)[C@H](Cc1ccccc1)NC(=O)OC(C)(C)C)S(=O)(=O)c1ccc2nc(NCCN3CCCC3)sc2c1 [Compound 126]				3160	10000	49	
CC(C)CN(C[C@@H](O)[C@H](Cc1ccccc1)NC(=O)OCc1cncs1)S(=O)(=O)c1ccc2nc(NC(=O)CN3CCN(C)CC3)sc2c1 [Compound 156]	8.27				27.5	7.24	
CC(C)CN(C[C@@H](O)[C@H](Cc1ccccc1)NC(=O)OCc1cncs1)S(=O)(=O)c1ccc2nc(NC(=O)c3ccc[nH]3)sc2c1 [Compound 179]				57.5	47.9	8.91	
CC(C)CN(C[C@@H](O)[C@H](Cc1ccccc1)NC(=O)OCc1cncs1)S(=O)(=O)c1ccc2nc(N(C)C(=O)c3ccccn3)sc2c1 [Compound 154]				38	372	5.5	
CC(C)CN(C[C@@H](O)[C@H](Cc1ccccc1)NC(=O)O[C@H]1CCOC1)S(=O)(=O)c1ccc2nc(NC(=O)CN3CCCC3)sc2c1 [Compound 100]				43.7	70.8	1.32	
CC(C)CN(C[C@@H](O)[C@H](Cc1ccccc1)NC(=O)O[C@H]1CO[C@H]2OCC[C@H]21)S(=O)(=O)c1ccc2nc(NCCN3CCCC3)sc2c1 [Compound 184]				4.47	26.9		17.4
CC(C)CN(C[C@@H](O)[C@H](Cc1ccccc1)NC(=O)OCc1cncs1)S(=O)(=O)c1ccc2nc(N(C)C(=O)c3cccnc3)sc2c1 [Compound 153]				45.7	339	7.41	
Cc1cccc(C)c1OCC(=O)N[C@@H](Cc1ccccc1)[C@H](O)CN(CC(C)C)S(=O)(=O)c1ccc2nc(NC(=O)C3CCCN(C)C3)sc2c1 (stereo partly drawn) [Compound 128]				19.1	56.2	5.89	
CC(C)CN(C[C@@H](O)[C@H](Cc1ccccc1)NC(=O)O[C@H]1CO[C@H]2OCC[C@H]21)S(=O)(=O)c1ccc2nc(N(C)CCN3CCCC3)sc2c1 [Compound 110]				676	1550	8.13	
Cc1cccc(C)c1OCC(=O)N[C@@H](Cc1ccccc1)[C@H](O)CN(CC(C)C)S(=O)(=O)c1ccc2nc(N(C)CCN3CCCC3)sc2c1 [Compound 115]				6170	10000	759	
CC(C)CN(C[C@@H](O)[C@H](Cc1ccccc1)NC(=O)OCc1cncs1)S(=O)(=O)c1ccc2nc(N(C)C(=O)c3cc(ON)cc(ON)c3)sc2c1 [Compound 152]				562	1740	33.1	
CC(=O)Nc1nc2ccc(S(=O)(=O)N(CC(C)C)C[C@@H](O)[C@H](Cc3ccccc3)NC(=O)OCc3cncs3)cc2s1 [Compound 169]				6.76	35.5	8.51	
